Data from patent publication US12150447B2, “Plant growth regulator” (University of Washington, priority 2017, dated 2024).

Key:
[1] = molecular target: T1, mutant auxin receptor (TIR1 F79S) (Arabidopsis thaliana, UniProt Q570C0, F79S); assay: Evaluation of binding to auxin receptor (yeast two-hybrid assay), mutant TIR1 F79S; conditions: yeast two-hybrid according to Test Example 1
T1 construct: expressed in transfected cells; host or cells: Saccharomyces cerevisiae strain EGY48

[2] = molecular target: T2, wild-type auxin receptor (TIR1) (Arabidopsis thaliana, UniProt Q570C0); assay: Evaluation of binding to auxin receptor (yeast two-hybrid assay), wild-type receptor; conditions: yeast EGY48, LacZ reporter, X-gal, 30° C. for 3 days; wild type auxin receptor with AUX/IAA protein
T2 construct: expressed in transfected cells; host or cells: Saccharomyces cerevisiae strain EGY48
T2 sequence (Q570C0 1-594): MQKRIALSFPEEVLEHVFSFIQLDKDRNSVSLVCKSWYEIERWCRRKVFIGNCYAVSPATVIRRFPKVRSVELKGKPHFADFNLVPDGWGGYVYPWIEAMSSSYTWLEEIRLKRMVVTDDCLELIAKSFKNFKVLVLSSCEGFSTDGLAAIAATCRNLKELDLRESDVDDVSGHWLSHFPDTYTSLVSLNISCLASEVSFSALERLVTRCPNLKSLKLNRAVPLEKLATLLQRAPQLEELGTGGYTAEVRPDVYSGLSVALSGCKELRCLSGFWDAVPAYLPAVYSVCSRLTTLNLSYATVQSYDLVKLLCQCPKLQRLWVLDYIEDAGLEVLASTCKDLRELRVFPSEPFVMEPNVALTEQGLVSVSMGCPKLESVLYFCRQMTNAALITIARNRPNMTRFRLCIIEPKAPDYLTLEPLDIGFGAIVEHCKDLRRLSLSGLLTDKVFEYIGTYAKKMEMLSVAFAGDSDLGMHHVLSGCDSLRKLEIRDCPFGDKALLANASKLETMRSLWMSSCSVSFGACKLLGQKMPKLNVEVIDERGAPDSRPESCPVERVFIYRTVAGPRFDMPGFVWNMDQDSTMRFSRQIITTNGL
T2 sequence (Q38822 1-93 partner limits assumed): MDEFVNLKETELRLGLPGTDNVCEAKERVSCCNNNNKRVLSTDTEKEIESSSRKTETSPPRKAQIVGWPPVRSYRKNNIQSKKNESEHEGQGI
Experimental: (§1) Test Example 1: Evaluation of Binding to Auxin Receptor (Yeast Two-Hybrid Assay
(§2) Specifically, the inventors set up the assay in the following manner.
The transformant was cultured at 30° C. on an agar plate made of yeast growth medium (minimal SD base and -His/-Trp/-Ura dropout supplement). The colonies were picked up and incubated overnight in liquid SD/-His/-Trp/-Ura medium at 30° C. Afterwards, the medium was replaced with a liquid medium composed of minimal SD/Gal/Raf base, -His/-Trp/-Ura dropout supplement, 50 mM Na-phosphate buffer (pH 7.0), […] X-gal, and various concentrations of test compounds. After incubation at 30° C. for 3 days, the medium containing yeast was transferred to a white 96-well plate (flat bottom) and observed.
(§3) In Table 1, the concentration of “wt TIR” indicates the minimum concentration of the test compound in which the well turns blue when the wild type auxin receptor is used, whereas the concentration of “mut” indicates the minimum concentration of the test compound in which the well turns blue when the mutant auxin receptor (TIR1 F79G) is used.

[3] = molecular target: T3, mutant auxin receptor (TIR1 F79G) (Arabidopsis thaliana, UniProt Q570C0, F79G); assay: Evaluation of binding to auxin receptor (yeast two-hybrid assay), mutant TIR1 F79G; conditions: for TIR1 F79G: minimum concentration of the test compound at which the well turns blue: Table 2, repeated from Test Example 1, Table 1 for comparison; for mut TIR: minimum concentration of the test compound in which the well turns blue: yeast EGY48, LacZ reporter, X-gal, 30° C. for 3 days, TIR1 F79G with AUX/IAA protein
T3 construct: expressed in transfected cells; host or cells: Saccharomyces cerevisiae strain EGY48
T3 sequence (Q570C0 whole entry F79G, one chain of several): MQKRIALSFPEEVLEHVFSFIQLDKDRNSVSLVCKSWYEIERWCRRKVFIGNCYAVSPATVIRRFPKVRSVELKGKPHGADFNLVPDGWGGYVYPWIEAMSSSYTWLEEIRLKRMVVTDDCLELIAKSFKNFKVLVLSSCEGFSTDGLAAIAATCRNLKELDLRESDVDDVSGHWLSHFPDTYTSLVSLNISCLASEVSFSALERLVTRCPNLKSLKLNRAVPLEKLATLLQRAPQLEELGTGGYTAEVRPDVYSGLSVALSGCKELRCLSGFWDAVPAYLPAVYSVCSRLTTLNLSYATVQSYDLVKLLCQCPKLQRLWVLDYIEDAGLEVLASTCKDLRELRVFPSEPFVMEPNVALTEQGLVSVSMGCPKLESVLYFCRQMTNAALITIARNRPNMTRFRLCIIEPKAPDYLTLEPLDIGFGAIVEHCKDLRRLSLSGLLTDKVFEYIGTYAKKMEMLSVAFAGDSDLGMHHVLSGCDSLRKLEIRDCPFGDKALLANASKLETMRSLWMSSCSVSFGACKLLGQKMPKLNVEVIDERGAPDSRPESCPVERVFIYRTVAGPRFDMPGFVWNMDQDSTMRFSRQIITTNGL
Text: as §1, §2
Yeast strain EGY48 was transformed into a plasmid (pSH18-34) containing a LacZ expression cassette (LexA-operon: LacZ reporter) that is transcriptionally regulated by the LexA-operon, a plasmid derived from pGLex313 containing an expression cassette of LexA-DNA-binding domain fusion protein A (the wild-type auxin receptor: SEQ ID NO. 1, or mutant auxin receptor (TIR1 F79G) where the amino acid residue 79 (phenylalanine) in the wild-type is mutated to a glycine: SEQ ID NO. 2), and a plasmid derived from pJG4-5 containing an expression cassette of B42 transcription activator fusion protein B (AUX/IAA protein: SEQ ID NO: 3). The transformant was cultured at 30° C. on an agar plate made of yeast growth medium (minimal SD base and -His/-Trp/-Ura dropout supplement). The colonies were picked up and incubated overnight in liquid SD/-His/-Trp/-Ura medium at 30° C. Afterwards, the medium was replaced with a liquid medium composed of minimal SD/Gal/Raf base, -His/-Trp/-Ura dropout supplement, 50 mM Na-phosphate buffer (pH 7.0), […] X-gal, and various concentrations of test compounds. After incubation at 30° C. for 3 days, the medium containing yeast was transferred to a white 96-well plate (flat bottom) and observed. The lower the concentration of the test compound when blue color appears, the higher the binding between the test compound and the auxin receptor (wild type or mutant) is. Conversely, higher the concentration of test compound when the blue color appears for the first time, the lower the binding between the test compound and the auxin receptor (wild type or mutant).
as §3

[4] = molecular target: T4, mutant auxin receptor (TIR1 F79A) (Arabidopsis thaliana, UniProt Q570C0, F79A); assay: Evaluation of binding to auxin receptor (yeast two-hybrid assay), mutant TIR1 F79A; conditions: yeast two-hybrid according to Test Example 1
T4 construct: expressed in transfected cells; host or cells: Saccharomyces cerevisiae strain EGY48
T4 sequence (Q570C0 whole entry F79A, one chain of several): as the sequence (Q570C0 whole entry F79G, one chain of several) above, with G79A counted along it

[5] = system: Arabidopsis seeds expressing the mutant auxin receptor (TIR1 F79G); assay: Root elongation assay (Test Example 5), TIR1 F79G seeds; format: in vivo; conditions: 35S:TIR1 F79G seeds, 0.1 μM; FIG. 4
Experimental: (§4) FIG. 4 This is a diagram showing the results of root elongation assay in Test Example 5. On the left side of the photo, “35S:TIR1^F79G” indicates experiments using Arabidopsis seeds having an expression cassette of a mutant auxin receptor (TIR1 F79G), whereas “35S:TIR1^WT” indicates Arabidopsis seeds expressing the wild type auxin receptor (TIR1). On the upper part of the photo, “DMSO” indicates experiments where the plants are not treated with test compounds, “IAA(1) 0.1 μM” indicates experiments where auxin (indole-3-acetic acid) is used as the test compound, and “21 0.1 μM” indicates experiments where the auxin derivative synthesized in Example 30 is used as the test compound.
(§5) Arabidopsis seeds having the expression cassette of mutant auxin receptor (TIR1 F79G) (SEQ ID NO: B) or wild-type Arabidopsis seeds without said expression cassette were sterilized and stored at 4° C. in the dark for several days. The seeds were transferred to 0.5× Murashige and Skoog (MS) liquid medium and incubated for 1 day at 22° C. in the light with shaking at 140 rpm. The test compound was added to the medium at various concentrations and the seeds were further incubated for 1 week. […] If an auxin response signal has been produced in the root, root elongation will be suppressed.
(§6) Test Example 5: Evaluation of Plant Growth Regulating Action 4 (Root Elongation Assay […]

[6] = system: wild-type Arabidopsis seeds; assay: Root elongation assay (Test Example 5), wild-type seeds; format: in vivo; conditions: wild-type seeds (35S:TIR1 WT in FIG. 4), 0.1 μM
Experimental: as §4, §5, §6

T1 sequence (Q570C0 whole entry F79S, one chain of several): as the sequence (Q570C0 whole entry F79G, one chain of several) above, with G79S counted along it

Row | Structure (SMILES) | TIR1 F79S: minimum concentration of test compound at which the well turns blue [1] [µM] | wt TIR: minimum concentration of the test compound in which the well turns blue [2] [µM] | TIR1 F79G: minimum concentration of the test compound at which the well turns blue [3] [µM] | mut TIR: minimum concentration of the test compound in which the well turns blue [3] [µM] | TIR1 F79A: minimum concentration of the test compound at which the well turns blue [4] [µM] | inhibition of root elongation [5] | inhibition of root elongation [6]
1 | O=C(O)Cc1c[nH]c2ccc(C3CCCCC3)cc12 [Compound 15, 2-(5-cyclohexyl-1H-indol-3-yl)acetic acid] | 0.001 | 0.1 | 0.001 | 0.001 | 0.0001 | – | –
2 | O=C(O)Cc1c[nH]c2ccc(C34CC5CC(CC(C5)C3)C4)cc12 [Compound 21, 2-(5-((3r, 5r, 7r)-adamantan-1-yl)-1H-indol-3-yl)acetic acid] | 0.0001 | 0.1 | 0.001 | 0.001 | 0.00001 | inhibited root elongation | does not inhibit root elongation
3 | O=C(O)Cc1c[nH]c2cc(-c3ccccc3-c3ccccc3)ccc12 [MK-232, 2-(6-([1,1′-biphenyl]-2-yl)-1H-indol-3-yl)acetic acid] | – | 100 | – | 10 | – | – | –
4 | Cc1cccc(-c2ccc3c(CC(=O)O)c[nH]c3c2)c1 [MK-245, 2-(6-(m-tolyl)-1H-indol-3-yl)acetic acid] | – | 10 | – | 0.1 | – | – | –
5 | O=C(O)Cc1c[nH]c2cc(-c3ccc4c(c3)OCO4)ccc12 [MK-247, 2-(6-(benzo[d][1,3]dioxol-5-yl)-1H-indol-3-yl)acetic acid] | – | 10 | – | 0.1 | – | – | –
6 | O=C(O)Cc1c[nH]c2cc(-c3cccc(Oc4ccccc4)c3)ccc12 [MK-248, 2-(6-(3-phenoxyphenyl)-1H-indol-3-yl)acetic acid] | – | 10 | – | 0.1 | – | – | –
7 | O=C(O)Cc1c[nH]c2ccc(-c3ccc(F)c(Cl)c3)cc12 [MK-255, 2-(5-(3-chloro-4-fluorophenyl)-1H-indol-3-yl)acetic acid] | – | 100 | – | 1 | – | – | –
8 | Cc1ccc(Cl)c(-c2ccc3[nH]cc(CC(=O)O)c3c2)c1 [MK-307, 2-(5-(2-chloro-5-methylphenyl)-1H-indol-3-yl)acetic acid] | – | >100 | – | 10 | – | – | –
9 | O=C(O)Cc1c[nH]c2ccc(-c3cc(Cl)ccc3Cl)cc12 [MK-308, 2-(5-(2,5-dichlorophenyl)-1H-indol-3-yl)acetic acid] | – | 100 | – | 10 | – | – | –
10 | Cc1ccc(Cl)cc1-c1ccc2[nH]cc(CC(=O)O)c2c1 [MK-309, 2-(5-(5-chloro-2-methylphenyl)-1H-indol-3-yl)acetic acid] | – | 100 | – | 10 | – | – | –
11 | CCC(C)COc1ccc2[nH]cc(CC(=O)O)c2c1 (stereo not shown) [MK-322, 2-(5-(2-methylbutoxy)-1H-indol-3-yl)acetic acid] | – | 10 | – | 0.1 | – | – | –
12 | CCCCCCCOc1ccc2[nH]cc(CC(=O)O)c2c1 [MK-323, 2-(5-(heptyloxy)-1H-indol-3-yl)acetic acid] | – | 100 | – | 10 | – | – | –
13 | O=C(O)Cc1c[nH]c2ccc(OCC3CCCCC3)cc12 [MK-333, 2-(5-(cyclohexylmethoxy)-1H-indol-3-yl)acetic acid] | – | 100 | – | 0.1 | – | – | –
14 | Cc1ccc(COc2ccc3[nH]cc(CC(=O)O)c3c2)cc1 [MK-350, 2-(5-((4-methylbenzyl)oxy)-1H-indol-3-yl)acetic acid] | – | >100 | – | 100 | – | – | –
15 | Cc1cc(C)cc(-c2ccc3[nH]cc(CC(=O)O)c3c2)c1 [MK-379, 2-(5-(3,5-dimethylphenyl)-1H-indol-3-yl)acetic acid] | – | 100 | – | 1 | – | – | –
16 | CCCCOc1ccc2[nH]cc(CC(=O)O)c2c1 [RY-215, 2-(5-(butyloxy)-1H-indol-3-yl)acetic acid, reference compound] | – | 10 | – | 0.1 | – | – | –
